According to patent publication US11890318B2, “Methods and compositions for modulating appetite and intake of sodium” (California Institute of Technology, priority 2019, dated 2024):
Entries after “also recorded” stand apart in the source; their conditions may differ.

Legend:
pre-LC^PDYN neurons [1] = assay: Fibre photometry recording of GCaMP6s signals from pre-LC^PDYN neurons during ingestion or IG infusion; type: in vivo, mice
Experimental: For photometry recording, animals were given either 5- or 10-minutes access to stimuli. To examine sodium specific responses of pre-LC^PDYN neurons (FIGS. 3D, 3E), animals were presented with three solutions during the session. First, animals were given 5 min access to 0.5 M KCl (FIG. 3D) or 0.5 M NaCl+0.1 mM amiloride (FIG. 3E). Then animals had 5 min access to water. Finally, animals were given 5 min access to 0.5 M NaCl. The interval between trials was 5 min. In FIG. 4B, 0.5 M NaCl, deionized water, or glucose solution (5 M) was infused via an intragastric catheter. Solutions were delivered at 0.1 ml/min for 5 min (water and sodium) or 10 min (food) using an infusion syringe pump (NE-300, New Era Pump Systems Inc). 10 min after gastric infusion, animals were given access to nutrients and their consumption was quantified for 10 min (for water and 0.5 M NaCl), or 30 min (for normal chow). Either air infusion (for water), or water infusion (for sodium and food) was used as a control stimulus. In FIG. 4D, either 0.15 M NaCl, water, or air was infused at a rate of 0.1 ml/min while recording the neural activity by photometry. For control, oral ingestion (FIG. 4C), the same set of animals were given access to 0.15 M NaCl. For all photometry assays, animals were acclimatized for 10-15 min in the chamber before stimuli were presented. Bulk fluorescence signals were collected using fibre photometry as previously described. Briefly, data were extracted and subjected to a low-pass filter at 1.8 Hz. A linear function was used to scale up the 405-nm channel signal to the 490-nm channel signal to obtain the fitted 405-nm signal. The resultant ΔF/F was calculated as (raw 490 nm signal−fitted 405 nm signal)/(fitted 405 nm signal). ΔF/F was then time-binned by a factor of 2.5 times the sampling frequency and down-sampled to 10 Hz. For all bouts, the mean fluorescence for 5 min before the first lick was calculated and subtracted from the entire session. The licks from the lickometer were simultaneously recorded. The area under the curve (AUC) was quantified by integrating the baseline-subtracted fluorescence signals for 30 sec after the start of the bout. For FIG. 10D, the data were quantified as ΔF/F change between 1 sec prior to, and at the first lick (0 sec). For IG infusion experiments (FIG. 4E), AUC was quantified during the 5-min of infusion.

dBNST→pre-LC neurons = assay: Optical recording of calcium responses of dBNST→pre-LC neurons; type: in vivo, mice; conditions: sodium-depleted conditions; FIG. 5F
Experimental: For all photometry assays, animals were acclimatized for 10-15 min in the chamber before stimuli were presented. Bulk fluorescence signals were collected using fibre photometry as previously described. Briefly, data were extracted and subjected to a low-pass filter at 1.8 Hz. A linear function was used to scale up the 405-nm channel signal to the 490-nm channel signal to obtain the fitted 405-nm signal. The resultant ΔF/F was calculated as (raw 490 nm signal−fitted 405 nm signal)/(fitted 405 nm signal). ΔF/F was then time-binned by a factor of 2.5 times the sampling frequency and down-sampled to 10 Hz. For all bouts, the mean fluorescence for 5 min before the first lick was calculated and subtracted from the entire session. The licks from the lickometer were simultaneously recorded. The area under the curve (AUC) was quantified by integrating the baseline-subtracted fluorescence signals for 30 sec after the start of the bout. For FIG. 10D, the data were quantified as ΔF/F change between 1 sec prior to, and at the first lick (0 sec). For IG infusion experiments (FIG. 4E), AUC was quantified during the 5-min of infusion.
To label the dBNST→pre-LC circuit, 100 nl of CAV-Cre was injected into the pre-LC followed by the injection of AAV5-DIO-mCherry or AAV1-flex-GCaMP6S into the dBNST. These animals were used for experiments at least two weeks after the injection.

[2] = system: Pre-LC^PDYN-stimulated animals; assay: Preference assay (appetite specificity) under photostimulation of pre-LC^PDYN neurons; type: in vivo, mice; conditions: photostimulated animals; 0.5 M NaCl+30 μM amiloride; FIG. 7C
Experimental: (§1) For appetite specificity assay (FIG. 7C), three different solutions were presented to animals during the same session, and their preference was measured as a lick number. For each trial, 20 sec of photostimulation was delivered to the animal with an inter-trial-interval of 60 secs. Water, 0.5 M KCl, 0.5 M NaCl, or 0.5 M NaCl+30 μM amiloride was used for preference assay. For sodium consumption assay (FIGS. 1E, 1G, and 1H), animals were given ad libitum access to 0.5 M NaCl, water or an empty spout for either 7.5 or 30 min.

pre-LC^PDYN neurons [3] = assay: Chemogenetic manipulation, sodium and water consumption; type: in vivo, mice; conditions: CNO 10 mg/kg intraperitoneal
Description: For ChR2 photostimulation. 473 nm laser pulses (20 ms, 20 Hz) were delivered via an optic cable (MFP-FC-ZF, Doric Lenses) using a pulse generator (Sapphire 9200 from Quantum composers or SYS-A310 from WPI). The laser intensity was maintained at 5-10 mW at the tip of the fiber. Unless otherwise noted, photostimulation was delivered for 1 s at 3 s intervals throughout the behavior session. For iC++ photoinhibition, 473 nm laser was continuously turned on throughout the session at 3 mW at the tip of the fiber. For chemogenetic manipulation (FIGS. 8E-H), CNO (Sigma, 10 mg/kg) or vehicle (water) was administered intraperitoneal 20 min before the sodium consumption experiment.
To induce sodium appetite, animals were injected with furosemide (Sigma) at a dose of 50 mg/kg body weight. Low sodium diet (TD. 90228, ENVIGO) was provided for 2 days after the injection of furosemide. For water-restriction experiments, animals were kept in their home cage without water, and were provided with 1 mL of water daily. For food restriction experiments, animals were deprived of food up to 24 hrs with normal water provided. All assays were performed in a custom gustometer (Dialog Instruments) or Biodaq monitoring system (Research Diets Inc). All sodium-depleted animals were trained in a gustometer before experiments. Animals which licked at least 150 licks during the 30-min session were used for further behavioral assays. After every sodium-depletion round, animals were recovered for at least 4 days with the normal diet.
as §1

[4] = system: pre-LC^PDYN neurons expressing hM4Di; assay: Slice electrophysiology, chemogenetic (hM4Di) inhibition by CNO; type: cell-based; conditions: AAV-DIO-hM4Di-mCherry; 10 μM CNO puffed 10 sec; 2 mice; FIG. 8E
Experimental: 250-μm coronal slices were obtained using a vibratome (VT-1000s, Leica) in ice-cold sucrose-aCSF (artificial cerebrospinal fluid) solution (Sucrose 213, KCl 2.5, NaH2PO4 1.2, NaHCO3 25, glucose 10, MgSO4 7, CaCl2 1, in mM at pH 7.3), and then incubated in HEPES-holding aCSF (NaCl 92, KCl 2.5, NaH2PO4 1.2, NaHCO3 30, HEPES 20, glucose 25, Na-ascorbate 5, thiourea 2, Na-pyruvate 3, MgSO4 2, CaCl2 2, in mM at pH 7.3-7.4). Slices were recovered at 34.5° C. for 45 min and then held at room temperature until use.
For patch-clamp recording, slices were placed in a recording chamber perfused with aCSF (NaCl 124, KCl 2.5, NaH2PO4 1.2, NaHCO3 25, glucose 10, MgSO4 1, CaCl2 2, in mM, at pH 7.3) on an upright microscope (Examiner.D1, Zeiss). Whole-cell recordings were achieved using glass pipettes (5-8 MΩ) filled with intracellular solution (for DREADD and iC++ experiments, K-gluconate 145, NaCl 2, KCl 4, HEPES 10, EGTA 0.2, Mg-ATP 4, Na-GTP 0.3; for GABAergic postsynaptic currents, CsCl 145, NaCl 2, HEPES 10, EGTA 0.2, QX-314 bromide 5, Mg-ATP 4, Na-GTP 0.3, in mM at pH 7.25; for glutamatergic postsynaptic currents, Cs(CH3)SO3 145, NaCl 2, HEPES 10, EGTA 0.2, QX-314 bromide 5, Mg-ATP 4, Na-GTP 0.3, in mM, at pH 7.25). Electrical signals were filtered at 3 k Hz with Axon MultiClamp 700B (Molecular Devices) and collected at 20 kHz with Axon Digidata 1550A (Molecular Devices). […]

[5] = Intragastric infusion and subsequent ingestive behavior; type: in vivo; conditions: sodium-depleted mice
Experimental: In FIG. 4B, 0.5 M NaCl, deionized water, or glucose solution (5 M) was infused via an intragastric catheter. Solutions were delivered at 0.1 ml/min for 5 min (water and sodium) or 10 min (food) using an infusion syringe pump (NE-300, New Era Pump Systems Inc). 10 min after gastric infusion, animals were given access to nutrients and their consumption was quantified for 10 min (for water and 0.5 M NaCl), or 30 min (for normal chow). Either air infusion (for water), or water infusion (for sodium and food) was used as a control stimulus. In FIG. 4D, either 0.15 M NaCl, water, or air was infused at a rate of 0.1 ml/min while recording the neural activity by photometry. For control, oral ingestion (FIG. 4C), the same set of animals were given access to 0.15 M NaCl.

With `[Cl-].[K+]` [KCl] as the molecule, how does the “pre-LC^PDYN neuron activity upon ingestion of KCl” value (pre-LC^PDYN neurons [1]; sodium-depleted animals, 0.5 M KCl, FIG. 3D) read?
The value was “no suppression was observed; also recorded: did not affect”.

Which “responses of dBNST→pre-LC neurons upon NaCl intake with amiloride” value (dBNST→pre-LC neurons) does the source give for `N=C(N)NC(=O)c1nc(Cl)c(N)nc1N` [amiloride, reference compound] here?
Its value is “strongly inhibited”.

What about the “NaCl-induced suppression of pre-LC^PDYN neurons with amiloride” value (pre-LC^PDYN neurons [1]; sodium-depleted animals, 0.5 M NaCl+0.1 mM amiloride, FIG. 3E) of the same molecule?
The value was “fully abolished; also recorded: eliminated inhibition”.

And the “NaCl consumption in the presence of amiloride” value [2]?
Its value is “reduced”.

What does the source list for `C[N+]1([O-])CCN(C2=Nc3cc(Cl)ccc3Nc3ccccc32)CC1` [CNO, clozapine N-oxide]?
thirst or sodium appetite in control animals (pre-LC^PDYN neurons [3]; AAV-DIO-mCherry injected animals, FIG. 8H): did not affect thirst or sodium appetite; thirst under chemogenetic inhibition (pre-LC^PDYN neurons [3]; hM4Di, FIG. 8G): did not affect thirst; sodium intake under chemogenetic inhibition (pre-LC^PDYN neurons [3]; hM4Di, sodium-depleted animals, FIG. 8G): reduced sodium intake; pre-LC^PDYN neurons inhibited by CNO [4]: 13 out of 14

Which results are given for `[Cl-].[Na+]` [NaCl]?
subsequent sodium ingestion after gastric preloading of NaCl ([5]; IG 0.5 M NaCl, 0.1 ml/min for 5 min, FIG. 4B left): did not affect; appetite reduction after a long period of IG infusion ([5]; IG NaCl, after 2 hrs): 41.3±6.0%; sodium appetite after oral NaCl contact ([5]; oral, FIG. 4B left): quickly quenched the appetite; pre-LC^PDYN neuron activity, low concentration of NaCl (pre-LC^PDYN neurons [1]; 0.06 M NaCl, FIG. 10B): exhibited inhibitory effects; pre-LC^PDYN neuron activity after brief NaCl intake (pre-LC^PDYN neurons [1]; NaCl intake for 1 sec, FIG. 3F): robust suppression for several minutes; also recorded: induced persistent suppression; neural activity of pre-LC^PDYN neurons, IG infusion of NaCl (pre-LC^PDYN neurons [1]; intragastric infusion, 0.15 M NaCl, 0.1 ml/min, FIGS. 4D and 4E): no inhibitory effect; also recorded: not affected; neural activity of pre-LC^PDYN neurons, oral NaCl consumption (pre-LC^PDYN neurons [1]; oral, 0.15 M NaCl, FIGS. 4C and 4E): drastically reduced
